Assay results published in patent US11021444B2, “Antiviral compounds” (priority 2013, dated 2021).
Where two headings read alike, the source gives them in different places.

Columns and labels:
[1] = target: recombinant RSV complex (Human respiratory syncytial virus A, UniProt P28887); experiment: RSV Polymerase Inhibition Assay; assay type: biochemical
Outline: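 Inhibition measured as reduced incorporation of radiolabel into RNA products, detected by scintillation counting. Reactions: recombinant RSV complex (10 nM), RNA oligonucleotides, Tris-HCl pH 7.5, 6 mM MgCl2, inhibitor titration, 2 h at 30 °C, EDTA stop.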

[2] = test system: Respiratory Syncytial Virus (RSV) long strain; experiment: microbe, parasite or virus in culture; assay type: cell-based; conditions: human respiratory syncytial virus, Tables A and B list compounds by EC50 band
Outline: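 CPE-reduction format: viability measured colorimetrically with CCK-8 (450 nm, 630 nm reference) after 3-4 h, following 5-day infection at 37 °C, 5% CO2. Cells were HEp-2; inoculum 100 TCID50/well; duplicate 9-point 1/3 series starting at 100 μM or 1 μM.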

[3] = test system: RSV replicon; experiment: microbe, parasite or virus in culture; assay type: cell-based; conditions: human respiratory syncytial virus, read-out: EC50, the concentration of the drug required for reducing RSV replicon RNA by 50%
[4] = Cytotoxicity Determination (CCK-8, without addition of virus); assay type: cell-based; conditions: human, 50% cytotoxicity concentration (CC50)
Outline: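 Cytotoxicity was measured by CCK-8 after 3-4 hours at 37 °C, following 5 days of uninfected exposure at 37 °C and 5% CO2. Compounds ran as duplicate 7-point 1/2 dilutions starting at 100 μM, with 1% final DMSO. HEp-2 cells had been plated at 1,500/well the day before.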

[5] = HEp-2, 120 h, read-out: 50% effective concentration (EC50), HEp-2 cells infected with RSV long strain, 5 days, CCK-8 readout
[6] = 120 h, read-out: 50% effective concentration (EC50), HEp-2 cells infected with RSV long strain, 5 days, CCK-8 readout

recombinant RSV complex, sequence (P28887 whole entry): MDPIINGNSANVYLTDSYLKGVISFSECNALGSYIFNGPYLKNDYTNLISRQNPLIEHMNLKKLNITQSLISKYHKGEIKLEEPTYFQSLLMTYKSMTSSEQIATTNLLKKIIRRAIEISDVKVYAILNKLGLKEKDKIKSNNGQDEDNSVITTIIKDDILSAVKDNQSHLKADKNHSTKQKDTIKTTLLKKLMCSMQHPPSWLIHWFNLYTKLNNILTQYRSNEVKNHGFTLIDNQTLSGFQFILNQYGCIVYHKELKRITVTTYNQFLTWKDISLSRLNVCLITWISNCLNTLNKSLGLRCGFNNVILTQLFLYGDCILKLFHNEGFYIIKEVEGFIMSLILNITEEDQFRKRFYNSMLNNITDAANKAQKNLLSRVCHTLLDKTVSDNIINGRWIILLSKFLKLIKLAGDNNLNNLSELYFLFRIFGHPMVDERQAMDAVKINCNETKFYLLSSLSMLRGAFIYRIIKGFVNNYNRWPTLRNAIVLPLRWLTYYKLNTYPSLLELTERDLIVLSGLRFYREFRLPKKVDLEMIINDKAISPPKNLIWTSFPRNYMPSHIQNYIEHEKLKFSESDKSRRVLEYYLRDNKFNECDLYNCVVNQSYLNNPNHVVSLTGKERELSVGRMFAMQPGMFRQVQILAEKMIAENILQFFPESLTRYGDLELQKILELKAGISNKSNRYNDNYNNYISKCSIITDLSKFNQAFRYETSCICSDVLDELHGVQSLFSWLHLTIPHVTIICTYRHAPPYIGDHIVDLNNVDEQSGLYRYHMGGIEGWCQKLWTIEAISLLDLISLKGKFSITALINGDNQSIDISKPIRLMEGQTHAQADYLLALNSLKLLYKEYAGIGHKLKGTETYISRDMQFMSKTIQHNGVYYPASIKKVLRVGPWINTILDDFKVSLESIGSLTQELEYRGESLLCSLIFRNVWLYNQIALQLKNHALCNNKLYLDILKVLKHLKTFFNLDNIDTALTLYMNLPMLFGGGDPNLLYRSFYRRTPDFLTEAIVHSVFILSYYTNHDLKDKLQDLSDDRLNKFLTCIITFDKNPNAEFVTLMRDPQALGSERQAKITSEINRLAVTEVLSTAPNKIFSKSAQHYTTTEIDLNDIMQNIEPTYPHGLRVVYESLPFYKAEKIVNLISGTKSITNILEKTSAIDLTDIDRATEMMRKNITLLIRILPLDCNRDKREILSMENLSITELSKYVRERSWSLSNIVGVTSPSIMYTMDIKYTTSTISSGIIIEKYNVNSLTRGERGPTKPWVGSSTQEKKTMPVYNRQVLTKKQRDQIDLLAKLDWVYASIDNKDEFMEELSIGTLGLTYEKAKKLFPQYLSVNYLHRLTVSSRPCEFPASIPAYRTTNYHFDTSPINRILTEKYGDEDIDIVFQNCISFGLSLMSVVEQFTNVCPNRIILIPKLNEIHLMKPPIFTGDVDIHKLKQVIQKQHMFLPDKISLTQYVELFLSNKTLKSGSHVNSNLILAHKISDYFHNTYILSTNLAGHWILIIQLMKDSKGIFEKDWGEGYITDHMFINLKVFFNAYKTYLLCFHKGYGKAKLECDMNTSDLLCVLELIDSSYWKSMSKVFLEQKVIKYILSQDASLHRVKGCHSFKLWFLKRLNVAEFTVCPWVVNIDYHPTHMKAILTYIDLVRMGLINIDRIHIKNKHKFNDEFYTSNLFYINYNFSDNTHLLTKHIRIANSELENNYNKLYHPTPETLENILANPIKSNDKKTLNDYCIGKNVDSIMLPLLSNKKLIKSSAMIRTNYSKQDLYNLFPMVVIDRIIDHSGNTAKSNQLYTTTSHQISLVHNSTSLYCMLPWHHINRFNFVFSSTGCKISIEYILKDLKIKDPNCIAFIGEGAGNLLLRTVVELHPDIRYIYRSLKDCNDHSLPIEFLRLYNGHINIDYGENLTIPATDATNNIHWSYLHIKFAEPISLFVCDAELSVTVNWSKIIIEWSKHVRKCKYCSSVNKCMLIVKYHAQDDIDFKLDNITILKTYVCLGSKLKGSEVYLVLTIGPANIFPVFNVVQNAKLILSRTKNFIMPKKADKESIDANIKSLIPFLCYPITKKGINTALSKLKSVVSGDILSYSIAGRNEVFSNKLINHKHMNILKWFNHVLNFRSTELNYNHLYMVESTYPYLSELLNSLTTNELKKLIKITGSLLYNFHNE
recombinant RSV complex, sequence (P03421 whole entry, further chain): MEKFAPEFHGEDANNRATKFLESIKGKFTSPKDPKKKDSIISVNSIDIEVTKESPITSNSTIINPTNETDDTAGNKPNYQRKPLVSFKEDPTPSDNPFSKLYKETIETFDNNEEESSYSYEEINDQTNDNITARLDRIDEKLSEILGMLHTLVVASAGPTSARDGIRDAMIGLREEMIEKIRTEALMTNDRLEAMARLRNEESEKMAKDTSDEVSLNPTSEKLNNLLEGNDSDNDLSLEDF

Row | Compound | IC50 [1] | EC50 [2, 5] | EC50 [3] | CC50 at 5 days [4] | EC50 [2, 6]
1 | COc1cc(C(=O)NCC(O)(c2cc(C(C)(C)N)cc(-c3ccc(F)cc3)n2)C2CC2)ccc1OCCO (centres unmarked) [Compound 634] | < 1000 nM | < 1000 nM | < 1000 nM | > 100 µM | 
2 | COc1ccc(C(O)(CNC(=O)c2ccc(OC[C@@H](C)O)c(Cl)c2)C(F)(F)F)nc1-c1ccc(F)c(Cl)c1 (some centres unmarked) [Compound 232] | < 1000 nM | < 1000 nM | < 1000 nM | 10 to 100 µM | 
3 | COc1cc(C(=O)NCC(O)(c2cc(C(C)(N)CO)cc(-c3ccc(F)c(Cl)c3)n2)C(F)(F)F)ccc1OC1CC1 (centres unmarked) [Compound 533] | < 1000 nM | < 1000 nM | < 1000 nM | 10 to 100 µM | 
4 | CCC1(N)COc2c1cc(C(O)(CNC(=O)c1ccc(OCCO)c(OC)c1)C(F)(F)F)nc2-c1ccc(F)cc1 (centres unmarked) [Compound 530] | < 1000 nM |  | < 1000 nM | 10 to 100 µM | < 1000 nM
5 | COc1cc(C(=O)NCC(C)(O)c2ccc(OC)c(-c3c[nH]c4c(F)cccc34)n2)ccc1OCC(N)=O (centres unmarked) [Compound 419] | < 1000 nM | < 1000 nM | < 1000 nM | > 100 µM | 
6 | COc1cc(C(=O)NCC(O)(c2cc3c(c(-c4ccc(F)cc4)n2)OCC3(N)C(C)C)C(F)(F)F)ccc1OC1CC1 (centres unmarked) [Compound 560] | < 1000 nM |  | < 1000 nM | 10 to 100 µM | < 1000 nM
7 | COc1cc(C(=O)NC[C@](O)(c2cc(C(C)(C)N)cc(-c3ccc(F)c(Cl)c3)n2)C(F)(F)F)ccc1OCC(N)=O [Compound 548] | < 1000 nM | < 1000 nM | < 1000 nM | 10 to 100 µM | 
8 | COc1cc(C(=O)NC[C@](O)(c2cc(C(C)(C)N)cc(-c3ccc(F)cc3)n2)C(F)(F)F)ccc1OCC(N)=O [Compound 562] | < 1000 nM | < 1000 nM | < 1000 nM | > 100 µM | 
9 | COc1cc(C(=O)NCC(O)(CN2CCC2)c2ccc(OC)c(-c3ccc(F)c(Cl)c3)n2)ccc1OC1CC1 (centres unmarked) [Compound 462] | < 1000 nM | < 1000 nM | < 1000 nM | 10 to 100 µM | 
10 | COc1cc(C(=O)OCC(O)(CN)c2ccc(OC)c(-c3ccc(F)c(Cl)c3)n2)ccc1OC1CC1 (centres unmarked) [Compound 383] | < 1000 nM | < 1000 nM | < 1000 nM | 10 to 100 µM | 
11 | COc1ccc(C(=O)NCC(=O)c2nc(-c3csc4c(F)cccc34)c3ccccn23)cc1OC [Compound 130] | < 1000 nM |  | < 1000 nM | 10 to 100 µM | < 1000 nM
12 | COc1cc(C(=O)NCC(C)(O)c2cc(C(C)(C)N)cc(-c3ccc(F)c(Cl)c3)n2)ccc1OC1CC1 (centres unmarked) [Compound 460] | < 1000 nM |  | < 1000 nM | 10 to 100 µM | < 1000 nM
13 | COc1cc(C(=O)NCC(O)(c2cc(CN)cc(-c3ccc(F)c(Cl)c3)n2)C(F)(F)F)ccc1OC[C@@H](C)O (some centres unmarked) [Compound 357] | < 1000 nM | < 1000 nM | < 1000 nM | 10 to 100 µM | 
14 | CCNC(C)(C)c1cc(-c2ccc(F)c(Cl)c2)nc(C(O)(CNC(=O)c2ccc(OC[C@H](C)O)c(OC)c2)C(F)(F)F)c1 (some centres unmarked) [Compound 391] | < 1000 nM | < 1000 nM | < 1000 nM | 10 to 100 µM | 
15 | CNC(C)(C)c1cc(-c2ccc(F)c(Cl)c2)nc(C(O)(CNC(=O)c2cc(OC)c3ncccc3c2)C(F)(F)F)c1 (centres unmarked) [Compound 488] | < 1000 nM | < 1000 nM | < 1000 nM | 10 to 100 µM | 
16 | COc1cc(C(=O)NCC(O)(c2ccc(OC)c(-c3ccc(F)c(Cl)c3)n2)C2CC2)ccc1Cn1ccnc1 (centres unmarked) [Compound 438] | < 10000 nM | 1000 to 50000 nM | 1000 to 50000 nM | 10 to 100 µM | 
17 | COc1cc(C(=O)NCC(O)(c2ccc(OC)c(-c3ccc(F)c(Cl)c3)n2)C(F)(F)F)ccc1OCCO (centres unmarked) [Compound 334] | < 1000 nM | < 1000 nM | < 1000 nM | 10 to 100 µM | 
18 | COc1cc(C(=O)NC[C@@](O)(c2cc(C(C)(C)N)cc(-c3ccc(F)cc3)n2)C(F)(F)F)ccc1OCC(N)=O [Compound 561] | < 10000 nM | 1000 to 50000 nM | < 1000 nM | > 100 µM | 
19 | COc1cc(C(=O)NCC(F)(c2ccc(OC)c(-c3ccc(F)c(Cl)c3)n2)C2CC2)ccc1OCCO (centres unmarked) [Compound 366] | < 1000 nM | < 1000 nM | < 1000 nM | 10 to 100 µM | 
20 | COc1cc(C(=O)NCC(O)(c2cc3c(c(-c4ccc(F)c(Cl)c4)n2)OCC3C)C2CC2)ccc1OCCO (centres unmarked) [Compound 308] | < 1000 nM | < 1000 nM | < 1000 nM | 10 to 100 µM | 
